Measured values taken from EP3345917A1, “ANTIPROTOZOAL COMPOUNDS” (Bacoba AG, priority 2017, dated 2018).
Non-standard residues stand in square brackets, D forms with d. Residues, ends and D or L forms follow the SMILES beside them. *: point of attachment. Acetyl(1-adamantyl) = O=C(CC12CC3CC(CC(C3)C1)C2)*; Dansyl = CN(C)c1cccc2c(S(=O)(=O)*)cccc12; NH((S)CH(Me)CH2NMe2) = C[C@@H](CN(C)C)N*; dGly(nOct) = CCCCCCCC[C@@H](N)C(=O)O; Gly(octyl) = CCCCCCCC[C@H](N)C(=O)O; Lauroyl = CCCCCCCCCCCC(=O)*; Hexanoyl = CCCCCC(=O)*; X1 = CN(C)C1CCC(N*)CC1; X13 = O=C(CCN1CCOCC1)*; Aib = CC(C)(N)C(=O)O; Ms = CS(=O)(=O)*; βAla = NCCC(=O)O

Columns and labels:
[1] = test system: Trypanosoma brucei rhodesiense (STIB 900 strain); assay: Alamar Blue assay against Trypanosoma brucei rhodesiense grown in axenic medium; format: cell-based; conditions: In vitro inhibition, read-out: T.b.rhod.
Method in brief: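 Alamar Blue-based IC50 determination, in triplicate, on axenically grown STIB 900 trypanosomes. Melarsoprol included as reference.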

[2] = test system: Trypanosoma cruzi trypomastigote forms (Tulahuen strain); assay: Intracellular Trypanosoma cruzi assay in L6-cells, beta-galactosidase/CPRG readout; format: cell-based; conditions: In vitro inhibition, read-out: T.cruzi.
Method in brief: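 Readout was β-galactosidase cleavage of CPRG, read photometrically at 540 nm after 2–6 h colour development, giving IC50 values. Parasites: LacZ-expressing Tulahuen C2C4 strain grown in rat L6 myoblasts; run in triplicate.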

[3] = test system: Axenically grown Leishmania donovani amastigotes (strain MHOM/ET/67/L82); assay: Axenic Leishmania donovani amastigote resazurin assay; format: cell-based; conditions: In vitro inhibition, read-out: L.don. ax
Method in brief: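 IC50 values derive from resazurin fluorescence (ex 536 nm, em 588 nm), expressed relative to the negative control, after 2-4 hours of plate development. Axenic amastigotes of strain MHOM/ET/67/L82 were used; each test run in triplicate.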

[4] = test system: intracellular Leishmania donovani (L.don. InMac); assay: Intracellular Leishmania donovani assay (L.don. InMac); format: cell-based; conditions: In vitro inhibition
Text: (§1) Tests were done in triplicate.

Plasmodium falciparum = assay: 3H-hypoxanthine incorporation assay against Plasmodium falciparum; format: cell-based; conditions: In vitro inhibition, read-out: P.falc NF5
Procedure: as §1
IC50 values were calculated by linear interpolation.

[5] = Cytotoxicity assay on L6-cells (Alamar Blue); conditions: rat, Cytotox L6, Cytotoxicity against rat myoblast cells (L6)
Procedure: Tests were done in triplicate. IC50 values against the parasites as well as cytotoxic effects against rat myoblast (L6-cells) were determined by serial dilution and repeated twice.
After 68 h of incubation under humidified 5% CO2 atmosphere, 10 µl of the Alamar blue marker was added to all wells. The plates were incubated for an additional 2 h. […] The IC50S were calculated by Softmax Pro software (Molecular Devices Cooperation, Sunnyvale, CA). […] Cytotoxicity was measured against rat myoblast cells (Cytotox L6).

Compound | IC50 [1] | IC50 [2] | IC50 [3] | IC50 [4] | IC50 (Plasmodium falciparum) | IC50 at 70 h [5]
CCCCCCCC[C@H](NC(=O)[C@@H]1CCCN1C(=O)CCN1CCOCC1)C(=O)N[C@@H](CC(C)C)C(=O)NC(C)(C)C(=O)N[C@@H](CC(C)C)C(=O)N[C@@H](CC(C)C)C(=O)NC(C)(C)C(=O)NC(C)(C)C(=O)NCCC(=O)N[C@@H](C)CN(C)C [Compound 5650, (2S)-N-[(1S)-1-[(1-{[(1S)-1-{[(1S)-1-{[1-({1-[(2-{[(2S)-1-(dimethylamino)propan-2-yl]carbamoyl}ethyl)carbamoyl]-1-methylethyl}carbamoyl)-1-methylethyl]carbamoyl}-3-methylbutyl]carbamoyl}-3-methylbutyl]carbamoyl}-1-methylethyl)carbamoyl]-3-methylbutyl]-2-{[(2S)-1-[3-(morpholin-4-yl)propanoyl]pyrrolidin-2-yl]formamido}decanamide] (X13-P[Gly(octyl)]L[Aib]LL[Aib][Aib][βAla]-{NH((S)CH(Me)CH2NMe2)}) | 15.3 nM | 133 nM | 105 nM | 188 nM | 11.1 nM | 492 nM
CCCCCCCCCCCC(=O)N1CCC[C@H]1C(=O)N[C@@H](CCCCCCCC)C(=O)N[C@@H](CC(C)C)C(=O)NC(C)(C)C(=O)N[C@@H](CC(C)C)C(=O)N[C@@H](CC(C)C)C(=O)NC(C)(C)C(=O)NC(C)(C)C(=O)NCCC(=O)N[C@@H](C)CN(C)C [Compound 5651, (2S)-N-[(1S)-1-[(1-{[(1S)-1-{[(1S)-1-{[1-({1-[(2-{[(2S)-1-(dimethylamino)propan-2-yl]carbamoyl}ethyl)carbamoyl]-1-methylethyl}carbamoyl)-1-methylethyl]carbamoyl}-3-methylbutyl]carbamoyl}-3-methylbutyl]carbamoyl}-1-methylethyl)carbamoyl]-3-methylbutyl]-2-{[(2S)-1-dodecanoylpyrrolidin-2-yl]formamido}decanamide] (Lauroyl-P[Gly(octyl)]L[Aib]LL[Aib][Aib][βAla]-{NH((S)CH(Me)CH2NMe2)}) | 3.3 nM | 1370 nM | 53 nM | 707 nM | 0.8 nM | 498 nM
CCCCCCCC[C@H](NC(=O)[C@@H]1CCCN1S(C)(=O)=O)C(=O)N[C@@H](CC(C)C)C(=O)NC(C)(C)C(=O)N[C@@H](CC(C)C)C(=O)N[C@@H](CC(C)C)C(=O)NC(C)(C)C(=O)NC(C)(C)C(=O)NCCC(=O)N[C@@H](C)CN(C)C [Compound 5652, (2S)-N-[(1S)-1-[(1-{[(1S)-1-{[(1S)-1-{[1-({1-[(2-{[(2S)-1-(dimethylamino)propan-2-yl]carbamoyl}ethyl)carbamoyl]-1-methylethyl}carbamoyl)-1-methylethyl]carbamoyl}-3-methylbutyl]carbamoyl}-3-methylbutyl]carbamoyl}-1-methylethyl)carbamoyl]-3-methylbutyl]-2-{[(2S)-1-methanesulfonylpyrrolidin-2-yl]formamido}decanamide] (Ms-P[Gly(octyl)]L[Aib]LL[Aib][Aib][βAla]-{NH((S)CH(Me)CH2NMe2)}) | 4 nM | 436 nM | 8.1 nM | 166 nM | 4.6 nM | 1410 nM
CCCCCCCC[C@H](NC(=O)[C@@H]1CCCN1S(=O)(=O)c1cccc2c(N(C)C)cccc12)C(=O)N[C@@H](CC(C)C)C(=O)NC(C)(C)C(=O)N[C@@H](CC(C)C)C(=O)N[C@@H](CC(C)C)C(=O)NC(C)(C)C(=O)NC(C)(C)C(=O)NCCC(=O)N[C@@H](C)CN(C)C [Compound 5765, (2S)-2-{[(2S)-1-{[5-(dimethylamino)naphthalen-1-yl]sulfonyl}pyrrolidin-2-yl]formamido}-N-[(1S)-1-[(1-{[(1S)-1-{[(1S)-1-{[1-({1-[(2-{[(2S)-1-(dimethylamino)propan-2-yl]carbamoyl}ethyl)carbamoyl]-1-methylethyl}carbamoyl)-1-methylethyl]carbamoyl}-3-methylbutyl]carbamoyl}-3-methylbutyl]carbamoyl}-1-methylethyl)carbamoyl]-3-methylbutyl]decanamide] (Dansyl-P[Gly(octyl)]L[Aib]LL[Aib][Aib][βAla]-{NH((S)CH(Me)CH2NMe2)}) | 1.6 nM | 126 nM | 4.3 nM | 203 nM | 1 nM | 250 nM
CCCCCCCC[C@H](NC(=O)[C@@H]1CCCN1C(=O)CC12CC3CC(CC(C3)C1)C2)C(=O)N[C@@H](CC(C)C)C(=O)NC(C)(C)C(=O)N[C@@H](CC(C)C)C(=O)N[C@@H](CC(C)C)C(=O)NC(C)(C)C(=O)NC(C)(C)C(=O)NCCC(=O)N[C@@H](C)CN(C)C [Compound 5771, (2S)-2-{[(2S)-1-[2-(adamantan-1-yl)acetyl]pyrrolidin-2-yl]formamido}-N-[(1S)-1-[(1-{[(1S)-1-{[(1S)-1-{[1-({1-[(2-{[(2S)-1-(dimethylamino)propan-2-yl]carbamoyl}ethyl)carbamoyl]-1-methylethyl}carbamoyl)-1-methylethyl]carbamoyl}-3-methylbutyl]carbamoyl}-3-methylbutyl]carbamoyl}-1-methylethyl)carbamoyl]-3-methylbutyl]decanamide] ({Acetyl(1-adamantyl)}-P[Gly(octyl)]L[Aib]LL[Aib][Aib][βAla]-{NH((S)CH(Me)CH2NMe2)}) | 6.9 nM | 42.1 nM | 0.8 nM | 58.6 nM | 0.8 nM | 113 nM
CCCCCCCC[C@@H](NC(=O)[C@H]1CCCN1C(=O)CCCCC)C(=O)N[C@H](CC(C)C)C(=O)NC(C)(C)C(=O)N[C@H](CC(C)C)C(=O)N[C@H](CC(C)C)C(=O)NC(C)(C)C(=O)NC(C)(C)C(=O)NCCC(=O)N[C@@H](C)CN(C)C [Compound 5849, (2R)-N-[(1R)-1-[(1-{[(1R)-1-{[(1R)-1-{[1-({1-[(2-{[(2S)-1-(dimethylamino)propan-2-yl]carbamoyl}ethyl)carbamoyl]-1-methylethyl}carbamoyl)-1-methylethyl]carbamoyl}-3-methylbutyl]carbamoyl}-3-methylbutyl]carbamoyl}-1-methylethyl)carbamoyl]-3-methylbutyl]-2-{[(2R)-1-hexanoylpyrrolidin-2-yl]formamido}decanamide] (Hexanoyl-[dP][dGly(nOct)][dL][Aib][dL][dL][Aib][Aib][βAla]-{NH((S)CH(Me)CH2NMe2)}) | 55.6 nM | 257 nM | 3.5 nM | 67.1 nM | 7.5 nM | 1070 nM
CCCCCCCC[C@H](NC(=O)[C@@H]1CCCN1C(=O)CCCCC)C(=O)N[C@@H](CC(C)C)C(=O)NC(C)(C)C(=O)N[C@H](CC(C)C)C(=O)N[C@H](CC(C)C)C(=O)NC(C)(C)C(=O)NC(C)(C)C(=O)NCCC(=O)N[C@@H](C)CN(C)C [Compound 5850, (2S)-N-[(1S)-1-[(1-{[(1R)-1-{[(1R)-1-{[1-({1-[(2-{[(2S)-1-(dimethylamino)propan-2-yl]carbamoyl}ethyl)carbamoyl]-1-methylethyl}carbamoyl)-1-methylethyl]carbamoyl}-3-methylbutyl]carbamoyl}-3-methylbutyl]carbamoyl}-1-methylethyl)carbamoyl]-3-methylbutyl]-2-{[(2S)-1-hexanoylpyrrolidin-2-yl]formamido}decanamide] (Hexanoyl-P[Gly(octyl)]L[Aib][dL][dL][Aib][Aib][βAla]-{NH((S)CH(Me)CH2NMe2)}) | 18.5 nM | 319 nM | 8.8 nM | 71.5 nM | 0.9 nM | 820 nM
CCCCCCCC[C@@H](NC(=O)[C@H]1CCCN1C(=O)CCCCC)C(=O)N[C@H](CC(C)C)C(=O)NC(C)(C)C(=O)N[C@@H](CC(C)C)C(=O)N[C@@H](CC(C)C)C(=O)NC(C)(C)C(=O)NC(C)(C)C(=O)NCCC(=O)N[C@@H](C)CN(C)C [Compound 5851, (2R)-N-[(1R)-1-[(1-{[(1S)-1-{[(1S)-1-{[1-({1-[(2-{[(2S)-1-(dimethylamino)propan-2-yl]carbamoyl}ethyl)carbamoyl]-1-methylethyl}carbamoyl)-1-methylethyl]carbamoyl}-3-methylbutyl]carbamoyl}-3-methylbutyl]carbamoyl}-1-methylethyl)carbamoyl]-3-methylbutyl]-2-{[(2R)-1-hexanoylpyrrolidin-2-yl]formamido}decanamide] (Hexanoyl-[dP][dGly(nOct)][dL][Aib]LL[Aib][Aib][βAla]-{NH((S)CH(Me)CH2NMe2)}) | 165 nM | 1130 nM | 144 nM | 241 nM | 51.7 nM | 1210 nM
CCCCCCCC[C@H](NC(=O)[C@@H]1CCCN1C(=O)CCCCC)C(=O)N[C@@H](CC(C)C)C(=O)NC(C)(C)C(=O)N[C@@H](CC(C)C)C(=O)N[C@@H](CC(C)C)C(=O)NC(C)(C)C(=O)NC(C)(C)C(=O)NCCC(=O)NC1CCC(N(C)C)CC1 (stereo partly drawn) [Compound 5881, (2S)-N-[(1S)-1-[(1-{[(1S)-1-{[(1S)-1-{[1-({1-[(2-{[4-(dimethylamino)cyclohexyl]carbamoyl}ethyl)carbamoyl]-1-methylethyl}carbamoyl)-1-methylethyl]carbamoyl}-3-methylbutyl]carbamoyl}-3-methylbutyl]carbamoyl}-1-methylethyl)carbamoyl]-3-methylbutyl]-2-{[(2S)-1-hexanoylpyrrolidin-2-yl]formamido}decanamide] (Hexanoyl-P[Gly(octyl)]L[Aib]LL[Aib][Aib][βAla]-X1) | 44200 nM | 44 nM | 0.7 nM | 42500 nM | 0.2 nM | 592 nM
